Data on ten compounds can be found in patent publication US7449466B2, “Cyclic aminophenyl sulfamate derivative” (Aska Pharmaceutical Co., Ltd., priority 2003, dated 2008).

One test relates to MCF-7 cells. As to the kind of experiment: MCF-7 cell proliferation measurement (MTT) for examining estrogenic activity. The class given is cell-based, human. As to conditions: 4 days, 570 nm. As for the experimental part:
(3) MCF-7 Cell Proliferation Measurement for Examining Estrogenic Activity:
Stimulation of MCF-7 cell proliferation induced by estrogenic activity of each test compound was measured.
MCF-7 cells were cultured in 10% fetal bovine serum (FBS)-containing RPMI 1640 medium which was free from Phenol Red, using a 75 cm^2 culture flask. Then the medium was changed to RPMI 1640 medium containing 10% of FBS from which emdogenous steroid had been eliminated by charcoal treatment but containing no Phenol Red. Renewing the medium every two days, the culture was continued for 4 days. By this step estrogen was removed from the MCF-7 cells.
The MCF-7 cells were seeded on 96-well plates, 2,000 cells per well, and cultured for 24 hours to immobilize the cells on the plate. After the cell immobilization, the medium in each well was changed to RPMI 1640 medium containing 10^−6M test compound and 10% of charcoal-treated FBS but containing no Phenol Red, and the culture was continued for further 4 days, during which the medium was changed every day to one newly prepared before the use. Also control wells to which no test compound was added were provided.
After the end of the culture, the cell proliferation was measured by MTT (3-(4,5-dimethylthiazol-2-yl)-2,5-diphenyl-2H-tetrazolium bromide; Sigma-Aldrich Japan Co.) method. That is, an MTT solution as dissolved in PBS at a concentration of 5 mg/mL was added to the 96-well plate accommodating the cells, at a rate of 10 μL/well, followed by 2 hours' incubation at 37° C. After the end of the incubation, the medium was removed and the formazan which was taken into the cells and changed was dissolved with 100 μL of dimethylsulfoxide. Absorbance of the formazan was measured at wavelength 570 nm, using a microplate reader, subtracting the 630 nm background.
As shown by the Table 3, absorbance values of the wells to which the test compounds were added were invariably less than 150% of the absorbance of the control well, and it was confirmed that the test compounds were free of estrogenic activity.

In test [1] the target is T1, steroid sulfatase (Homo sapiens, UniProt P08842).
T1 sequence (P08842 22-583): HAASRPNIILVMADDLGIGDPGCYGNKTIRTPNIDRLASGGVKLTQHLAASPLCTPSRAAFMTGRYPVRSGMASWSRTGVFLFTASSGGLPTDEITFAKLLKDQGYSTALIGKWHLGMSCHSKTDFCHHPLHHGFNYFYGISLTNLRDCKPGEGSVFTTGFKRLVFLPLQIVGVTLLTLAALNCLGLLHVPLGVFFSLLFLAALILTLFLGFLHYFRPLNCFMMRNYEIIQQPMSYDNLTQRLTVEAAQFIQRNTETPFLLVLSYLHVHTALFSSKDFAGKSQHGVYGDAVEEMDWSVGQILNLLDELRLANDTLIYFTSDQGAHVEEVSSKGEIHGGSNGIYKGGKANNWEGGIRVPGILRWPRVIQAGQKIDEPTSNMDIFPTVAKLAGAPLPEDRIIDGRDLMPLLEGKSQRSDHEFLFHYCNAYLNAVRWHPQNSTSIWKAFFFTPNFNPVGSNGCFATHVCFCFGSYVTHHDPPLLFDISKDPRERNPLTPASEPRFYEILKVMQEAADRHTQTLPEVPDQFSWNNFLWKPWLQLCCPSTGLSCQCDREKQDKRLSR
In words: Steroid sulfatase inhibitory activity (in vitro), microsomal fraction of MCF-7 cells, [3H]estrone-3-sulfate hydrolysis. The arrangement: microsomal fraction of MCF-7 human breast cancer cells was used; endogenous in cells; host or cells: MCF-7 human breast cancer cells (microsomal fraction). As to conditions: MCF-7 microsomal fraction, 37° C., 30 minutes; for Inhibitory rate (%) (10^−6 M): 10^−6 M test compound; for Inhibitory rate (%) (10^−7 M): 10^−7 M test compound. The class given is biochemical. As for the experimental part: (1) Measurement of Steroid Sulfatase Inhibitory Activity (in vitro):
As the source of steroid sulfatase enzyme, microsomal fraction of MCF-7 human breast cancer cells was used.
To phosphate buffered saline (PBS), one of the test compounds, the microsomal fraction and 50 μL of 60 μM estrone-3-sulfate containing about 100 nCi of [6,7-^3H]estrone-3-sulfate (purchased from Perkin Elmer Life Sciences, Boston, Mass., USA; specific activity, 40-60 Ci/mmol) were added to make the total amount of the reaction system 150 μL, which was incubated at 37° C. for 30 minutes. After the incubation, 50 μL of PBS containing about 2 nCi of [4-^14C] estrone (purchased from Perkin Elmer Life Sciences, Boston, Mass., USA; specific activity 45-60 mCi/mmol) was added and stirred. Further 800 μL of toluene was added, and the whole system was thoroughly shaken for 30 seconds, followed by centrifugation at 2,000×g for 10 minutes to separate the acqueous phase from the organic phase. A part (400 μL) of the organic phase was taken and measured of its ^3H and ^14C contents with scintillation spectrometer.
The mass of hydrolyzed [6,7-^3H]estrone-3-sulfate was calculated from the count number of the obtained ^3H (as corrected regarding the amount of the used organic phase and the recovered amount of [4-^14C]estrone) and the specific activity of the substrate ([6,7-^3H]estrone-3-sulfate) to determine the steroid sulfatase inhibitory rate of each test compound.

Test [2] has as its target T2, steroid sulfatase (Rattus norvegicus, UniProt P15589).
T2 construct: The livers and uteri were separately minced with scissors and suspended in cooled PBS containing 250 mM sucrose; from tissue; host or cells: liver and uterus of ovariectomized female SD rats (2,000 x g supernatant of homogenate)
T2 sequence (P15589 20-577): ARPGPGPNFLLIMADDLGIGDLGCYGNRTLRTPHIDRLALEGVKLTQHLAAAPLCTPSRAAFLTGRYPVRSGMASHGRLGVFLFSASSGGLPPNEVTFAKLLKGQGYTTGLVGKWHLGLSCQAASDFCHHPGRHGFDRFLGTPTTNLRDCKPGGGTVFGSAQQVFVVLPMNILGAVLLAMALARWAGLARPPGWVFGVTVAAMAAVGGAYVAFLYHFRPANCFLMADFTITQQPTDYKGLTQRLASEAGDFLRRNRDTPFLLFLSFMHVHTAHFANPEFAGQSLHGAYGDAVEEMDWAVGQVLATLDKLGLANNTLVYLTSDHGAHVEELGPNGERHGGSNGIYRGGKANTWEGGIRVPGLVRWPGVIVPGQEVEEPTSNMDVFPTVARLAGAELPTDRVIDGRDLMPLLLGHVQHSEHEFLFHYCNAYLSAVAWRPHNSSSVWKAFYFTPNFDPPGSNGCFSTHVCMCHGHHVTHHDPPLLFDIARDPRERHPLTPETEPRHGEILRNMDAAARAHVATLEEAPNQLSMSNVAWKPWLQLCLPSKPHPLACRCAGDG
As to the kind of experiment: Steroid sulfatase inhibitory activity (in vivo), liver and uterus of ovariectomized rats after oral dosing. As to conditions: 0.5 mg/kg p.o. once a day for seven days, ovariectomized female SD rats. As for the experimental part: (2) Measurement of Steroid Sulfatase Inhibitory Activity (in vivo):
To six/group of female SD rats which had undergone ovariectomy, the test compounds as each suspended in 0.5% polyoxyethylene (20) sorbitan monooleate (Tween 80) were orally administered once a day for seven days. On the next day of the last administration, the rats were sacrificed under ether anesthesia. The bodies were anatomized and their livers and uteri were extracted, which were washed with cooled PBS and stored below −70° C. The livers and uteri were separately minced with scissors and suspended in cooled PBS containing 250 mM sucrose. Each of the suspensions was homogenized with a homogenizer under cooling with ice, from which neclei and cell debris were eliminated by centrifugation at 2,000×g for 20 minutes (4° C.). Protein concentration of each of the supernatant was measured by Bradford's method (Anal. Biochem., 72, 248-254 (1976)).
To 2-200 μg of the supernatant protein mass and 50 μL of 60 μM estrone-3-sulfate containing about 100 nCi of [6,7-^3H]estrone-3-sulfate (purchased from Perkin Elmer Life Sciences, Boston, Mass., U.S.A.; specific activity, 40-60 Ci/mmol), PBS was added to make the total amount 150 μL, followed by incubation at 37° C. for 30 minutes. After the incubation, the amount of hydrolyzed [6,7-^3H]estrone-3-sulfate was calculated by a method similar to the in vitro measurement in (1) above. Also steroid sulfatase activity per mg of the protein was calculated, and from the amount of the hydrolyzed [6,7-^3H]estrone-3-sulfate and the calculated steroid sulfatase activity per mg of the protein, the tested compound's steroid sulfatase inhibitory rate was determined.

The target in test [3] is T1, steroid sulfatase. As to conditions: background statement; cited from earlier work.
For test [4] the following is noted: background statement; cited from earlier work.

Take `NS(=O)(=O)Oc1cc(F)c(N2CCN(S(=O)(=O)c3ccc(Cl)cc3)CC2)cc1F` [Example 55, 4-[4-(4-chlorophenylsulfonyl)piperazin-1-yl]-2,5-difluorophenyl-O-sulfamate]: the “Absorbance relative to that of the control well (10^−6 M, %)” value (shortened to “Absorbance relative to that … (10^−6 M, %)”) in the test with MCF-7 cells turned out to be 64.6%. For the same compound, at steroid sulfatase [1], the “Inhibitory rate (%) (10^−6 M)” value is recorded as 100.0% and the “Inhibitory rate (%) (10^−7 M)” value is 97.5%.
For `CCCCCCCCS(=O)(=O)N1CCN(c2cc(F)c(OS(N)(=O)=O)cc2F)CC1` [Example 52, 2,5-difluoro-4-[4-(octylsulfonyl)piperazin-1-yl]phenyl-O-sulfamate], the “Absorbance relative to that … (10^−6 M, %)” value in the test on MCF-7 cells is reported as 112.0%. Moreover, on steroid sulfatase [1], the “Inhibitory rate (%) (10^−6 M)” value amounted to 100.0% and the “Inhibitory rate (%) (10^−7 M)” value was 99.3%.
In the case of `NS(=O)(=O)Oc1cc(F)c(N2CCC(CCCc3ccccc3)CC2)cc1F` [Example 37, 2,5-difluoro-4-[4-(3-phenylpropyl)piperidino]phenyl-O-sulfamate], on steroid sulfatase [2], the “Inhibitiory rate (0.5 mg/kg, p.o., %) Liver” value was 99.85% and the “Inhibitiory rate (0.5 mg/kg, p.o., %) Uterus” value worked out at 99.95%. Moreover, the “Absorbance relative to that … (10^−6 M, %)” value in the test on MCF-7 cells worked out at 89.5%. On steroid sulfatase [1], the “Inhibitory rate (%) (10^−6 M)” value worked out at 98.9% and the “Inhibitory rate (%) (10^−7 M)” value is given as 93.6%.
Regarding `Cc1cc(=O)oc2cc(OS(N)(=O)=O)ccc12` [COUMATE, 4-methylcoumarin-7-sulfamate], the “steroid sulfatase inhibiting activity” value at steroid sulfatase [3] was “low level of steroid sulfatase inhibiting activity”. Also, the estrogenic activity result in test [4] is “free from estrogenic activity”.
On to `NS(=O)(=O)Oc1cc(F)c(N2CCN(CCCC3CCCCC3)CC2)cc1F` [Example 45, 4-[4-(3-cyclohexylpropyl)piperazin-1-yl]-2,5-difluorophenyl-O-sulfamate], for which, on steroid sulfatase [2], the “Inhibitiory rate (0.5 mg/kg, p.o., %) Liver” value came out at 99.09% and the “Inhibitiory rate (0.5 mg/kg, p.o., %) Uterus” value was 99.32%. Further, the “Absorbance relative to that … (10^−6 M, %)” value in the test with MCF-7 cells stood at 91.4%. For the same compound, on steroid sulfatase [1], the “Inhibitory rate (%) (10^−6 M)” value is given as 98.5% and the “Inhibitory rate (%) (10^−7 M)” value is listed as 88.6%.
For the compound `NS(=O)(=O)Oc1cc(F)c(N2CCN(CCc3ccccc3)CC2)cc1F` [Example 43, 2,5-difluoro-4-(4-phenethylpiperazin-1-yl)phenyl-O-sulfamate], at steroid sulfatase [2], the “Inhibitiory rate (0.5 mg/kg, p.o., %) Liver” value worked out at 99.90% and the “Inhibitiory rate (0.5 mg/kg, p.o., %) Uterus” value was determined as 99.98%. Besides, the “Absorbance relative to that … (10^−6 M, %)” value with MCF-7 cells came out at 101.1%. Moreover, on steroid sulfatase [1], the “Inhibitory rate (%) (10^−6 M)” value was determined as 98.5% and the “Inhibitory rate (%) (10^−7 M)” value turned out to be 87.0%.
As to `NS(=O)(=O)Oc1cc(F)c(N2CCN(S(=O)(=O)Cc3ccc(Cl)cc3)CC2)cc1F` [Example 56, 4-[(4-chlorobenzylsulfonyl)piperazin-1-yl]-2,5-difluorophenyl-O-sulfamate], on steroid sulfatase [2], the “Inhibitiory rate (0.5 mg/kg, p.o., %) Liver” value worked out at 99.37% and the “Inhibitiory rate (0.5 mg/kg, p.o., %) Uterus” value was determined as 99.81%. Further, at steroid sulfatase [1], the “Inhibitory rate (%) (10^−6 M)” value was determined as 99.9% and the “Inhibitory rate (%) (10^−7 M)” value is listed as 98.4%.
For `CC(C)(C)c1ccc(C(=O)CCCN2CCN(c3cc(F)c(OS(N)(=O)=O)cc3F)CC2)cc1` [Example 48, 4-[4-[4-(4-tert-butylphenyl)-4-oxobutyl]piperazin-1-yl]-2,5-difluorophenyl-O-sulfamate], the “Absorbance relative to that … (10^−6 M, %)” value in the test with MCF-7 cells is reported as 112.0%. In addition, at steroid sulfatase [1], the “Inhibitory rate (%) (10^−6 M)” value was determined as 100.0% and the “Inhibitory rate (%) (10^−7 M)” value turned out to be 95.9%.
Consider `NS(=O)(=O)Oc1cc(F)c(N2CCC(CCCc3ccccc3)CC2)cc1F.O=S(=O)(O)c1ccccc1` [Example 59, 2,5-difluoro-4-[4-(3-phenylpropyl)piperidino]phenyl-O-sulfamate benzenesulfonate], for which, at steroid sulfatase [2], the “Inhibitiory rate (0.5 mg/kg, p.o., %) Liver” value is 100.00% and the “Inhibitiory rate (0.5 mg/kg, p.o., %) Uterus” value is reported as 100.00%. For the same compound, the “Absorbance relative to that … (10^−6 M, %)” value in the test on MCF-7 cells is given as 105.3%. At steroid sulfatase [1], the “Inhibitory rate (%) (10^−6 M)” value was determined as 99.0% and the “Inhibitory rate (%) (10^−7 M)” value is 95.4%.
`NS(=O)(=O)Oc1ccc(N2CCN(CCc3ccc(Cl)cc3)CC2)cc1F` [Example 22, 4-[4-[2-(4-chlorophenyl)ethyl]piperazin-1-yl]-2-fluorophenyl-O-sulfamate]: at steroid sulfatase [2], the “Inhibitiory rate (0.5 mg/kg, p.o., %) Liver” value is 99.85% and the “Inhibitiory rate (0.5 mg/kg, p.o., %) Uterus” value was 99.98%. In the test with MCF-7 cells, the “Absorbance relative to that … (10^−6 M, %)” value was determined as 74.6%. For the same compound, on steroid sulfatase [1], the “Inhibitory rate (%) (10^−6 M)” value amounted to 97.3% and the “Inhibitory rate (%) (10^−7 M)” value is 85.0%.
